Results published in patent US7704957B2, “Composition for inhibiting HIV activity extracted from Paecilomyces sp. (Tochu-kaso) J300” (priority 2001, dated 2010).
Residues, ends and D or L forms follow the SMILES beside them.

Tests used:
[1] = system: HIV; assay: Anti-HIV activity: survivability of cells protected from destruction by HIV, XTT method (National Cancer Institute method); type: cell-based; conditions: fractions Dong 1-2-1 to 1-2-8
Description: In FIGS. 2 to 8, 11 and 18, the term “Infected” (diamond mark ♦) is for the samples that a reagent is applied after the cells are infected with the virus to observe the protection of cells from the cell destruction of HIV. The term “Uninfected” (square mark □) is for the samples that only reagent is added with different concentration to observe the toxicity of the reagent according to the concentration. Further, X axis represents the concentration of the sample and Y axis represents the survivability of the cells in percentages (%).
In the present invention, the measurement of anti-HIV activity followed the method of National Cancer Institute (U.S.A.). In the method, survivability of cells that are protected from the destruction due to HIV was measured when the cells were treated with the active component of the present invention to determine the anti-HIV activity of the material.
In detail, the mixture of cell+HIV+sample (active compound) was cultured for 1 week, and then cell toxicity was measured by XTT method. […]
In this example, colorimetric assay was adopted to observe the growth and death of the cells, which uses the fact that tetrazole salt (MTT, XTT, WST-1) is broken only in the living cell to form non-soluble formazan structure. By quantitating the amount of the formazane wih ELISA method, the amount of living cell is measured quantitatively. […]

[2] = system: HIV; assay: Functional mechanism: sample added 30 minutes before or after virus infection; type: cell-based; conditions: sample 30 minutes before infection, FIG. 7
Description: To determine whether a material functions or not in the cell, the mixture of cell and sample is incubated for 30 minutes then infected with virus. […] In these case, the samples permeate the membranes of the cell and suppress the propagation of the virus in the cell, as well as the samples attach on the surface of the cell and suppress the introduction of the virus into the cell (FIG. 7)
In addition, after the cell was infected with the virus and incubated for 30 minutes, then the extracts of Tochu-kaso J300 were administered. If the functional site of the active material is out of the cell, the anti-HIV activity would not be detected; on the other hand, if the functional site is in the cell, the activity would be detected. […] This proves that the active material suppresses the propagation of the virus in the cell, even when the sample is administered after a long time after the infection of the cell with virus (FIG. 8).

Structure (SMILES) | anti-AIDS activity of fractions of Dong 1-2 [1] | activity when sample is added to the cell and virus infected 30 minutes later [2]
COC(C)C1NC(=O)C(CCC(=O)O)NC1=O (stereo not shown) [Dong 1-2-4, 3-[5-(methoxy-ethyl)-3,6-dioxo-piperazine-2-yl]propionic acid] | more intense activity compared to others | showed activity
CC(C)CC(NC(=O)C1CCCN1)C(=O)O (stereo not drawn) [Dong 1-2-5, 4-methyl-2-[(pyrolidine-2-carbonyl)-2-amino]pentanoic acid] (H-Pro-Leu-OH; configuration not given here) | more intense activity compared to others | showed activity
